Reference: US20220372585A1, “Sensors for Aromatic Compounds and Methods of Making and Using Same” (Washington University, priority 2021, published 2022)
“Also recorded” adds a separate entry of the source. Read-outs that look alike come from different tables or passages of the source.

Key:
TynA-FeaR system = experiment: microbe, parasite or virus in culture; settings: for EC50 / fold induction at 1250 µM: Escherichia coli; for EC50: read-out: KA (half maximal constant); for fold induction at 1250 µM: read-out: fold induction of the reporter; for Fmax / Fmin / n (Hill coefficient): wild-type TynA and FeaR, pCX008, pHJY022
Protocol: To develop sensors for aromatic amines, the TynA-FeaR system was first characterized in EcN. A sensor plasmid was constructed, which consisted of constitutively expressed TynA and FeaR from E. coli MG1655, and a reporter plasmid, which consisted of GFP under the control of PtynA (see e.g., FIG. 3B). […] Next, the sensitivity and selectivity to different ligands was characterized.
For fluorescence-based quantification, single colonies were transferred to 5 mL LB medium (VWR, Radnor, Pa., USA) in 14 mL round bottom tubes and incubated overnight at 250 rpm and 37° C. Unless otherwise specified, experimental cultures were prepared by diluting overnight cultures 100× into 0.6 mL M9 minimal medium supplemented with 1 mM MgSO4, […]), and 2% w/v glycerol as well as the respective ligands (DA, PEA, Tyra, and Trypta) in 2 mL 96-deep well plates. Cultures were grown for 24 h at 37° C. and 250 rpm. After 5 h and 24 h of incubation, samples were obtained from the cultures for flow cytometry analysis.
Flow cytometry was performed as previously described. Culture samples were collected and diluted to a final OD600 of ˜0.005-0.01 in […] filtered phosphate-buffered saline supplemented with 2 mg/ml kanamycin in 96-well assay microplates (U-bottom, REF-353910 from BD Biosciences, San Jose, Calif., USA). The fluorescence of the samples was measured using a Millipore Guava EasyCyte High Throughput flow cytometer with a 488 nm excitation laser and 512/18 nm emission filter. Cytometry data was gated by forward and side scatter. FlowJo (TreeStar Inc.) was used to obtain the arithmetic mean of the fluorescence distribution. The averages of the arithmetic means were calculated from three biological replicates. The average fluorescence of the non-fluorescent wild-type cell was subtracted from each sample to obtain the final fluorescence (au) values (Equation 2). To obtain the relative fluorescence in FIG. 6A-FIG. 6C, fluorescence values for each variant were normalized to the fluorescence of the wild-type sensor using Equation 3.
The Hill equation (Equations 4 and 5) was used to fit lines to the fluorescence data. The model was fit to the experimentally collected data by minimizing the root mean square error (RMSE; Equation 6).

[1] = test system: G415H TynA with wild-type FeaR; type: cell-based, E. coli MG1655; settings: for Fmax / Fmin / n (Hill coefficient): G415H TynA + wild-type FeaR, pCX008, pCX015; for response: G415H
Protocol: (§1) Flow cytometry was performed as previously described. […] Cytometry data was gated by forward and side scatter.

G494S TynA and A81S FeaR = type: cell-based, E. coli MG1655; settings: for Fmax / Fmin / n (Hill coefficient): G494S TynA + A81S FeaR, pCX008, pCX032
Protocol: as §1

[2] = test system: G494S TynA with A81T FeaR; type: cell-based, E. coli MG1655; settings: for Fmax / Fmin / n (Hill coefficient): G494S TynA + A81T FeaR, pCX008, pCX014; for response: G494S*
Protocol: as §1

[3] = test system: G494S TynA with wild-type FeaR; type: cell-based, E. coli MG1655; settings: for Fmax / Fmin / n (Hill coefficient): G494S TynA + wild-type FeaR, pCX008, pCX010
Protocol: as §1

[4] = test system: wild-type TynA with A81T FeaR; type: cell-based, E. coli MG1655; settings: 24 h; for effect of the A81T FeaR mutation on the response of the sensor: wild-type TynA, 1 mM, FIG. 21
Protocol: as §1

[5] = test system: wild-type TynA and A81L FeaR; experiment: microbe, parasite or virus in culture; type: cell-based, E. coli MG1655; settings: for EC50: Escherichia coli, read-out: KA (half maximal constant), wild-type TynA + A81L FeaR; for response: A81L FeaR
Protocol: as §1

[6] = test system: wild-type TynA with A81P FeaR; experiment: microbe, parasite or virus in culture; type: cell-based, E. coli MG1655; settings: for EC50: Escherichia coli, read-out: KA (half maximal constant), wild-type TynA + A81P FeaR
Protocol: as §1

[7] = test system: TynA-KP with FeaR-KA I109N; experiment: GFP fluorescence from PtynA-MG with TynA-KP and FeaR-KA I109N; type: cell-based, Klebsiella aerogenes; settings: for induction of fluorescence: I109N variant, 0.5 mM, 24 h, FIG. 32
Description: FIG. 32. […] Sensor system with PtynA-MG, TynA-KP and FeaR-KA was chosen as the wild type (WT) for further directed evolution. TynA-KP was employed to reduce the possible interference from DA during evolution processes. Values and error bars are the average and standard deviation of biological triplicate, respectively.
FIG. 33A-FIG. 33B. […] The expression of PtynA-MG was regulated by the TynA-KP with FeaR-KA I109N mutant. Points represent experimental data while lines represent the fitted curves. […] Values and error bars are the average and standard deviation of biological triplicate, respectively.

[8] = Sauerkraut, safe limit; cited from earlier work
[9] = wild-type TynA + A81T FeaR, pCX008, pCX016, FIG. 22A
[10] = wild-type TynA + A81L FeaR, pCX008, pCX024, FIG. 5C, 24 h
[11] = wild-type TynA + A81L FeaR, pCX008, pCX024, FIG. 24, 5 h
[12] = wild-type TynA + A81P FeaR, pCX008, pCX025, FIG. 25A, 5 h
[13] = wild-type TynA + A81P FeaR, pCX008, pCX025, FIG. 25B, 24 h

Compound: NCCc1ccccc1 [Phenylethylamine, phenylethylamine]
- EC50 (TynA-FeaR system; 5 h): 42 µM
- EC50 (TynA-FeaR system; 24 h): 87 µM
- fold induction at 1250 µM (TynA-FeaR system): > 1500
- Fmax (TynA-FeaR system; FIG. 3D, 24 h induction): 1430
- Fmin (TynA-FeaR system; FIG. 3D, 24 h induction): 0
- n (Hill coefficient) (TynA-FeaR system; FIG. 3D, 24 h induction): 3.9
- Fmax (TynA-FeaR system; FIG. 14, 5 h induction): 315
- Fmin (TynA-FeaR system; FIG. 14, 5 h induction): 10.4
- n (Hill coefficient) (TynA-FeaR system; FIG. 14, 5 h induction): 2
- Fmax ([1]; FIG. 4D, 24 h): 84
- Fmin ([1]; FIG. 4D, 24 h): 0
- n (Hill coefficient) ([1]; FIG. 4D, 24 h): 0.6
- Fmax ([1]; FIG. 17B, 5 h): 118
- Fmin ([1]; FIG. 17B, 5 h): 0
- n (Hill coefficient) ([1]; FIG. 17B, 5 h): 0.4
- Fmax (G494S TynA and A81S FeaR; FIG. 23A, 5 h): 462
- Fmin (G494S TynA and A81S FeaR; FIG. 23A, 5 h): 3.4
- n (Hill coefficient) (G494S TynA and A81S FeaR; FIG. 23A, 5 h): 1.2
- Fmax (G494S TynA and A81S FeaR; FIG. 25B, 22B [sic], 24 h): 475
- Fmin (G494S TynA and A81S FeaR; FIG. 25B, 22B [sic], 24 h): 5.9
- n (Hill coefficient) (G494S TynA and A81S FeaR; FIG. 25B, 22B [sic], 24 h): 1.5
- Fmax ([2]; FIG. 4C, 22B, 24 h): 790
- Fmin ([2]; FIG. 4C, 22B, 24 h): 5.4
- n (Hill coefficient) ([2]; FIG. 4C, 22B, 24 h): 1.4
- Fmax ([2]; FIG. 17A, 5 h): 9280
- Fmin ([2]; FIG. 17A, 5 h): 1.1
- n (Hill coefficient) ([2]; FIG. 17A, 5 h): 1.2
- fold induction ([2]; G494S* double mutant sensor): 140 fold
- Fmax ([3]; FIG. 18A, 5 h): 18
- Fmin ([3]; FIG. 18A, 5 h): 0.8
- n (Hill coefficient) ([3]; FIG. 18A, 5 h): 36
- Fmax ([3]; FIG. 18B, 22B, 24 h): 4012
- Fmin ([3]; FIG. 18B, 22B, 24 h): 3.4
- n (Hill coefficient) ([3]; FIG. 18B, 22B, 24 h): 1.3
- fold induction ([3]; G494S single mutant sensor): 50 fold
- Fmax [4, 9]: 1010
- Fmin [4, 9]: 18
- n (Hill coefficient) [4, 9]: 4.3
- effect of the A81T FeaR mutation on the response of the sensor [4]: insignificant impact
- fold induction ([5]; A81L sensor, FIG. 5C): 580 fold
- EC50 ([5]; 5 h, pCX008, pCX024, FIG. 24, 5 h): 74 µM
- EC50 ([5]; 24 h, pCX008, pCX024, FIG. 5C, 24 h): 140 µM
- Fmax [5, 10]: 585
- Fmin [5, 10]: 4.8
- KA (half maximal constant) [5, 10]: 0.137 mM
- n (Hill coefficient) [5, 10]: 2.7
- Fmax [5, 11]: 289
- Fmin [5, 11]: 5.1
- n (Hill coefficient) [5, 11]: 2.6
- EC50 ([6]; 5 h, pCX008, pCX025, FIG. 25A, 5 h): 14 µM
- EC50 ([6]; 24 h, pCX008, pCX025, FIG. 25B, 24 h): 50 µM
- Fmax [6, 12]: 14
- Fmin [6, 12]: 0.4
- n (Hill coefficient) [6, 12]: 8.4
- Fmax [6, 13]: 112
- Fmin [6, 13]: 1.1
- KA (half maximal constant) [6, 13]: 0.052 mM
- n (Hill coefficient) [6, 13]: 20.3
- induction of fluorescence [7]: not
- Concentration [8]: 30 µM

Compound: NCCc1c[nH]c2ccccc12 [Tryptamine, tryptamine]
- EC50 (TynA-FeaR system; 5 h): 45 µM
- EC50 (TynA-FeaR system; 24 h): 85 µM
- fold induction at 1250 µM (TynA-FeaR system): ~280
- Fmax (TynA-FeaR system; FIG. 3D, 24 h induction): 268
- Fmin (TynA-FeaR system; FIG. 3D, 24 h induction): 1.3
- n (Hill coefficient) (TynA-FeaR system; FIG. 3D, 24 h induction): 4.3
- Fmax (TynA-FeaR system; FIG. 14, 5 h induction): 57
- Fmin (TynA-FeaR system; FIG. 14, 5 h induction): 5.9
- n (Hill coefficient) (TynA-FeaR system; FIG. 14, 5 h induction): 3.1
- response ([1]; 5 h, FIG. 17B): lack of response
- response ([1]; 24 h, FIG. 4D): lack of response; also recorded: minimal response
- response (G494S TynA and A81S FeaR; G494S TynA and A81S FeaR, 5 h and 24 h, FIG. 23A-B): lack of response
- response ([2]; 5 h, FIG. 17A): lack of response
- response ([2]; 24 h, FIG. 4C): lack of response
- response ([3]; G494S TynA, wild-type FeaR, 5 h and 24 h, FIG. 18A-B): lack of response
- effect of the A81T FeaR mutation on the response of the sensor [4]: significantly reduced
- response ([5]; 5 h, FIG. 24): lack of response
- response ([5]; 24 h, FIG. 5C): lack of response
- response ([6]; A81P FeaR, 5 h and 24 h, FIG. 25A-B): lack of response
- response ([7]; FeaR-KA I109N, 5 h and 24 h, FIG. 33A-B): lack of response
- induction of fluorescence [7]: induction of fluorescence
